According to patent US8604218B2, “Cytoskeletal active rho kinase inhibitor compounds, composition and use” (Inspire Pharmaceuticals, Inc., priority 2006, dated 2013):

The molecules below were run against ROCK2 (Homo sapiens (Human), UniProt O75116) (assay: Rho Kinase Inhibition Assay (IMAP fluorescence polarization)). Conditions: isolated enzyme, 10 μM ATP, 60 minutes at room temperature.
Type: biochemical

ROCK2, sequence (O75116 11-552): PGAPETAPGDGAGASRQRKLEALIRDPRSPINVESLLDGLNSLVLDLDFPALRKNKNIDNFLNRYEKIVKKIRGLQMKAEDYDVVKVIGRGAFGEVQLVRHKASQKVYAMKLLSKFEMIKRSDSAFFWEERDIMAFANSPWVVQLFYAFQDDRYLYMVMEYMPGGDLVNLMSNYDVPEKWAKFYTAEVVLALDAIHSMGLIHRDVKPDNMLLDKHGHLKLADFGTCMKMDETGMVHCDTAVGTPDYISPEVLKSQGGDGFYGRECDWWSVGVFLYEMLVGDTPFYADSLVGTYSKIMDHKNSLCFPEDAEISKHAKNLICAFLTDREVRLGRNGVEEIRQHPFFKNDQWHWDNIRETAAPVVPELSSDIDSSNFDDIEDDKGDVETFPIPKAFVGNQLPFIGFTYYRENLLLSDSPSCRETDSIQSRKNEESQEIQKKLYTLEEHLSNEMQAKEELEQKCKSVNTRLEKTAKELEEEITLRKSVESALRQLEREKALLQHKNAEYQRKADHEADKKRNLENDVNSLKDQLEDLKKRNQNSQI

Row | SMILES | IC50
1 | CSc1ccc(CN2CC[C@@H](Nc3cccc4cnccc34)C2)cc1 [Compound 2.026, (R)-N-(1-(4-(methylthio)benzyl)pyrrolidin-3-yl)isoquinolin-5-amine] | 6.33 µM
2 | CC(=O)Nc1ccc(CN2CCC(Nc3cccc4cnccc34)C2)cc1 (stereo not shown) [Compound 2.008, N-(4-((3-(isoquinolin-5-ylamino)pyrrolidin-1-yl)methyl)phenyl)acetamide] | 3.65 µM
3 | N#Cc1cccc(CN2CCC(Nc3ccc4[nH]ncc4c3)C2)c1 (stereo not shown) [Compound 1.005, 3-((3-(1H-indazol-5-ylamino)pyrrolidin-1-yl)methyl)benzonitrile] | 2.29 µM
4 | CS(=O)(=O)c1ccc(CN2CCCC(Nc3cccc4cnccc34)C2)cc1 (stereo not shown) [Compound 2.002, N-(1-(4-(methylsulfonyl)benzyl)piperidin-3-yl)isoquinolin-5-amine] | 2.58 µM
5 | CC(=O)Nc1ccc(CN2CCC(Nc3ccc4[nH]ncc4c3)C2)cc1 (stereo not shown) [Compound 1.006, N-(4-((3-(1H-indazol-5-ylamino)pyrrolidin-1-yl)methyl)phenyl)acetamide] | 2.75 µM
6 | OCCOc1cccc(CN2CCC[C@H](Nc3ccc4[nH]ncc4c3)C2)c1 [Compound 1.090, (S)-2-(3-((3-(1H-indazol-5-ylamino)piperidin-1-yl)methyl)phenoxy)ethanol] | 0.354 µM
7 | c1ccc(CN2CCC(Nc3cccc4cnccc34)C2)cc1 (stereo not shown) [Compound 2.006, N-(1-benzylpyrrolidin-3-yl)isoquinolin-5-amine] | 0.0739 µM
8 | c1cc(NC2CCCN(Cc3ccc(C4CC4)cc3)C2)c2ccncc2c1 (stereo not shown) [Compound 2.010, N-(1-(4-cyclopropylbenzyl)piperidin-3-yl)isoquinolin-5-amine] | 1.24 µM
9 | Cc1ccc(CN2CC[C@H](Nc3cccc4cnccc34)C2)cc1 [Compound 2.028, (S)-N-(1-(4-methylbenzyl)pyrrolidin-3-yl)isoquinolin-5-amine] | 0.789 µM
10 | CN(C)CCCOc1ccc(CN2CCC(Nc3ccc4[nH]ncc4c3)C2)cc1 (stereo not shown) [Compound 1.007, N-(1-(4-(3-(dimethylamino)propoxy)benzyl)pyrrolidin-3-yl)-1H-indazol-5-amine] | 3.44 µM
11 | CC(C)Oc1ccc(CN2CCCC(Nc3ccc4[nH]ncc4c3)C2)cc1 (stereo not shown) [Compound 1.015, N-(1-(4-isopropoxybenzyl)piperidin-3-yl)-1H-indazol-5-amine] | 9.98 µM
12 | OCCCOc1cccc(CN2CCCC(Nc3ccc4[nH]ncc4c3)C2)c1 (stereo not shown) [Compound 1.084, 3-(3-((3-(1H-indazol-5-ylamino)piperidin-1-yl)methyl)phenoxy)propan-1-ol] | 0.274 µM
13 | NCCOc1cccc(CN2CCCC(Nc3ccc4[nH]ncc4c3)C2)c1 (stereo not shown) [Compound 1.085, N-(1-(3-(2-aminoethoxy)benzyl)piperidin-3-yl)-1H-indazol-5-amine] | 1.68 µM
14 | N#Cc1ccc(CN2CCCC(Nc3ccc4[nH]ncc4c3)C2)cc1 (stereo not shown) [Compound 1.038, 4-((3-(1H-indazol-5-ylamino)piperidin-1-yl)methyl)benzonitrile] | 2.76 µM
15 | N#Cc1cccc(CN2CCC(Nc3cccc4cnccc34)C2)c1 (stereo not shown) [Compound 2.007, 3-((3-(isoquinolin-5-ylamino)pyrrolidin-1-yl)methyl)benzonitrile] | 3.62 µM
16 | CC(=O)NCCOc1cccc(CN2CCCC(Nc3ccc4[nH]ncc4c3)C2)c1 (stereo not shown) [Compound 1.111, N-(2-(3-((3-(1H-indazol-5-ylamino)piperidin-1-yl)methyl)phenoxy)ethyl)acetamide] | 0.591 µM
17 | OCCOc1cccc(CN2CC[C@H](Nc3ccc4[nH]ncc4c3)C2)c1 [Compound 1.094, (S)-2-(3-((3-(1H-indazol-5-ylamino)pyrrolidin-1-yl)methyl)phenoxy)ethanol] | 0.466 µM
18 | Cc1n[nH]c2ccc(NC3CCCN(Cc4ccccc4)C3)cc12 (stereo not shown) [Compound 1.049, N-(1-benzylpiperidin-3-yl)-3-methyl-1H-indazol-5-amine] | 0.604 µM
19 | Cc1cccc(CN2CCCC(Nc3ccc4[nH]ncc4c3)C2)c1 (stereo not shown) [Compound 1.066, N-(1-(3-methylbenzyl)piperidin-3-yl)-1H-indazol-5-amine] | 0.232 µM

Row | SMILES | IC50
20 | C=Cc1ccc(CN2CCCC(Nc3ccc4[nH]ncc4c3)C2)cc1 (stereo not shown) [Compound 1.037, N-(1-(4-vinylbenzyl)piperidin-3-yl)-1H-indazol-5-amine] | 0.0695 µM
21 | Clc1ccc(CN2CCC[C@H](Nc3ccc4[nH]ncc4c3)C2)cc1Cl [Compound 1.080, (S)-N-(1-(3,4-dichlorobenzyl)piperidin-3-yl)-1H-indazol-5-amine] | 0.162 µM
22 | O=C(O)COc1cccc(CN2CCCC(Nc3ccc4[nH]ncc4c3)C2)c1 (stereo not shown) [Compound 1.086, 2-(3-((3-(1H-indazol-5-ylamino)piperidin-1-yl)methyl)phenoxy)acetic acid] | 0.31 µM
23 | CN(C)c1ccc(CN2CCCC(Nc3ccc4[nH]ncc4c3)C2)cc1 (stereo not shown) [Compound 1.032, N-(1-(4-(dimethylamino)benzyl)piperidin-3-yl)-1H-indazol-5-amine] | 1.94 µM
24 | C[C@@H](O)COc1cccc(CN2CCC[C@H](Nc3ccc4[nH]ncc4c3)C2)c1 [Compound 1.118, (R)-1-(3-(((S)-3-(1H-indazol-5-ylamino)piperidin-1-yl)methyl)phenoxy)propan-2-ol] | 1.4 µM
25 | c1cc(CN2CC[C@H](Nc3cccc4cnccc34)C2)cc(C2CC2)c1 [Compound 2.023, (S)-N-(1-(3-cyclopropylbenzyl)pyrrolidin-3-yl)isoquinolin-5-amine] | 15.7 µM
26 | C(#CC1CC1)c1ccc(CN2CCCC(Nc3ccc4[nH]ncc4c3)C2)cc1 (stereo not shown) [Compound 1.044, N-(1-(4-(cyclopropylethynyl)benzyl)piperidin-3-yl)-1H-indazol-5-amine] | 6.51 µM
27 | Clc1ccc(CN2CC[C@@H](Nc3cccc4cnccc34)C2)cc1 [Compound 2.027, (R)-N-(1-(4-chlorobenzyl)pyrrolidin-3-yl)isoquinolin-5-amine] | 0.12 µM
28 | CS(=O)(=O)Nc1cc(CN2CCCC(Nc3ccc4[nH]ncc4c3)C2)ccc1Cl (stereo not shown) [Compound 1.102, N-(5-((3-(1H-indazol-5-ylamino)piperidin-1-yl)methyl)-2-chlorophenyl)methanesulfonamide] | 0.0343 µM
29 | CS(=O)(=O)c1cccc(CN2CCCC(Nc3ccc4[nH]ncc4c3)C2)c1 (stereo not shown) [Compound 1.048, N-(1-(3-(methylsulfonyl)benzyl)piperidin-3-yl)-1H-indazol-5-amine] | 0.721 µM
30 | OCCOc1cccc(CN2CCCC(Nc3ccc4[nH]ncc4c3)C2)c1 (stereo not shown) [Compound 1.039, 2-(3-((3-(1H-indazol-5-ylamino)piperidin-1-yl)methyl)phenoxy)ethanol] | 0.328 µM
31 | COc1ccc(CN2CCC[C@H](Nc3ccc4[nH]ncc4c3)C2)cc1 [Compound 1.079, (S)-N-(1-(4-methoxybenzyl)piperidin-3-yl)-1H-indazol-5-amine] | 0.102 µM
32 | OCCn1ccc2ccc(CN3CCC[C@@H](Nc4ccc5[nH]ncc5c4)C3)cc21 [Compound 1.108, (R)-2-(6-((3-(1H-indazol-5-ylamino)piperidin-1-yl)methyl)-1H-indol-1-yl)ethanol] | 0.367 µM
33 | Cc1ccc(CN2CCCC(Nc3ccc4[nH]ncc4c3)C2)c(C)c1 (stereo not shown) [Compound 1.024, N-(1-(2,4-dimethylbenzyl)piperidin-3-yl)-1H-indazol-5-amine] | 0.107 µM
34 | CS(=O)(=O)Cc1cccc(CN2CCCC(Nc3ccc4[nH]ncc4c3)C2)c1 (stereo not shown) [Compound 1.041, N-(1-(3-(methylsulfonylmethyl)benzyl)piperidin-3-yl)-1H-indazol-5-amine] | 0.137 µM
35 | N#Cc1cccc(CN2CCCC(Nc3ccc4[nH]ncc4c3)C2)c1 (stereo not shown) [Compound 1.002, 3-((3-(1H-indazol-5-ylamino)piperidin-1-yl)methyl)benzonitrile] | 1.23 µM
36 | CS(=O)(=O)Nc1cccc(CN2CC[C@@H](Nc3ccc4[nH]ncc4c3)C2)c1 [Compound 1.097, (R)-N-(3-((3-(1H-indazol-5-ylamino)pyrrolidin-1-yl)methyl)phenyl)methanesulfonamide] | 0.276 µM
37 | c1cc2cc(CN3CCCC(Nc4ccc5[nH]ncc5c4)C3)ccc2o1 (stereo not shown) [Compound 1.052, N-(1-(benzofuran-5-ylmethyl)piperidin-3-yl)-1H-indazol-5-amine] | 0.0153 µM

What follows are molecules tested on NIH/3T3 cells (assay: NIH/3T3 Cell Morphology Assay (actin disruption)). Conditions: 1 μM test compound, 60 minutes at 37° C.; score of actin cytoskeleton disruption from 0 (no effect) to 4 (complete disruption), average of at least 2 determinations.
Type: cell-based
Procedure: NIH/3T3 cells were grown in DMEM-H containing glutamine and 10% Colorado Calf Serum. Cells were passaged regularly prior to reaching confluence. Eighteen to 24 hours prior to experimentation, the cells were plated onto Poly-L-Lysine-coated glass bottom 24-well plates. On the day of experimentation, the cell culture medium was removed and was replaced with the same medium containing from 10 nM to 25 μM of the test compound, and the cells were incubated for 60 minutes at 37° C. The culture medium was then removed and the cells were washed with warmed PBS and fixed for 10 minutes with warmed 4% paraformaldehyde. The cells were permeabilized with 0.5% Triton-X, stained with TRITC-conjugated phalloidin and imaged using a Nikon Eclipse E600 epifluorescent microscope to determine the degree of actin disruption. Results were expressed as a numerical score indicating the observed degree of disruption of the actin cytoskeleton at the test concentration, ranging from 0 (no effect) to 4 (complete disruption), and were the average of at least 2 determinations.
All compounds tested show measurable activity in the cell morphology assay, with most of the compounds providing substantial effects on the actin cytoskeleton at the testing concentration (score of 2 at 1 μM). […] These morphology changes are thought to provide the basis for the beneficial pharmacological effects sought in the setting of the disease processes described in this application, specifically the lowering of elevated IOP in hypertensive eyes via increased outflow through the trabecular meshwork.

Row | SMILES | Cell score at 1 μM
38 | CSc1ccc(CN2CC[C@@H](Nc3cccc4cnccc34)C2)cc1 [Compound 2.026, (R)-N-(1-(4-(methylthio)benzyl)pyrrolidin-3-yl)isoquinolin-5-amine] | 2
39 | CC(=O)Nc1ccc(CN2CCC(Nc3cccc4cnccc34)C2)cc1 (stereo not shown) [Compound 2.008, N-(4-((3-(isoquinolin-5-ylamino)pyrrolidin-1-yl)methyl)phenyl)acetamide] | 1
40 | N#Cc1cccc(CN2CCC(Nc3ccc4[nH]ncc4c3)C2)c1 (stereo not shown) [Compound 1.005, 3-((3-(1H-indazol-5-ylamino)pyrrolidin-1-yl)methyl)benzonitrile] | 1.3
41 | CS(=O)(=O)c1ccc(CN2CCCC(Nc3cccc4cnccc34)C2)cc1 (stereo not shown) [Compound 2.002, N-(1-(4-(methylsulfonyl)benzyl)piperidin-3-yl)isoquinolin-5-amine] | 1.8
42 | CC(=O)Nc1ccc(CN2CCC(Nc3ccc4[nH]ncc4c3)C2)cc1 (stereo not shown) [Compound 1.006, N-(4-((3-(1H-indazol-5-ylamino)pyrrolidin-1-yl)methyl)phenyl)acetamide] | 2
43 | N#Cc1cccc(CN2CCCC(Nc3ccc4[nH]ncc4c3)C2)c1 (stereo not shown) [Compound 1.002, 3-((3-(1H-indazol-5-ylamino)piperidin-1-yl)methyl)benzonitrile] | 1.4
